Experimental data published in ChEMBL document CHEMBL1142344, “Rapid assembly of diverse and potent allosteric Akt inhibitors” (Bioorg Med Chem Lett, 2008).

What was measured:
[1] = Half life in dog at 0.25 mg/kg, iv; assay type: ADME, organism-based, Canis lupus familiaris; parameters: dose 0.25 mg/kg, route intravenous; conditions: in vivo
[2] = Clearance in dog at 0.25 mg/kg, iv; assay type: ADME, organism-based, Canis lupus familiaris; parameters: dose 0.25 mg/kg, route intravenous; conditions: in vivo
[3] = target: T1, RAC-alpha serine/threonine-protein kinase (Homo sapiens, UniProt P31749); experiment: Inhibition of human recombinant Akt1
T1 sequence (P31749 whole entry): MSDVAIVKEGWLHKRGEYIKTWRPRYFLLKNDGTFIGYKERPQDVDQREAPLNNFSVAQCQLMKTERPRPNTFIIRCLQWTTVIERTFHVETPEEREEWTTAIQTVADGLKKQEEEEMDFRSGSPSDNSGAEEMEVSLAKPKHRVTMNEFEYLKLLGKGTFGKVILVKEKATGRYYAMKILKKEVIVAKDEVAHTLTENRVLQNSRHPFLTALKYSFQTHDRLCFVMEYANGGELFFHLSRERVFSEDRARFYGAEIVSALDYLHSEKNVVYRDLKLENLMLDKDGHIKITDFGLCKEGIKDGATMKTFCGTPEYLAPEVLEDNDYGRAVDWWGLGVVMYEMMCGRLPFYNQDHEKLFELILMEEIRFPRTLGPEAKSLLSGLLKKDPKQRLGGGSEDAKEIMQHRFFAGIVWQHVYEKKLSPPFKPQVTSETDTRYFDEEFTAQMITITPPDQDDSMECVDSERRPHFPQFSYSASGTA

[4] = target: T2, RAC-beta serine/threonine-protein kinase (Homo sapiens, UniProt P31751); experiment: Inhibition of human recombinant Akt2
T2 sequence (P31751 whole entry): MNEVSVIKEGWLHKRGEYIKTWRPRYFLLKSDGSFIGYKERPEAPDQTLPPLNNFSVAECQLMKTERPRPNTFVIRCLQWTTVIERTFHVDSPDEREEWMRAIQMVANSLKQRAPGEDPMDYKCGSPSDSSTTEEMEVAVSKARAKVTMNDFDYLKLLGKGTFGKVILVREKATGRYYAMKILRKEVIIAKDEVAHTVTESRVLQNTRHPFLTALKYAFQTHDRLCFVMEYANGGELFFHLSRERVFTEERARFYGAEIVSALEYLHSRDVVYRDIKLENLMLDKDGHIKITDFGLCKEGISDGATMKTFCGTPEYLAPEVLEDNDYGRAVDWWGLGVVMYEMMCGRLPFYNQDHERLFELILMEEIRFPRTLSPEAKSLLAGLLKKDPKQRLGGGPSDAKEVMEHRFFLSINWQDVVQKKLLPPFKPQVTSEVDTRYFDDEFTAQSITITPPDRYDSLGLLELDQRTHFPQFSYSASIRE

[5] = target: T2, RAC-beta serine/threonine-protein kinase; experiment: Inhibition of Akt2 phosphorylation in human C33a cells; assay type: cell-based
[6] = target: T1, RAC-alpha serine/threonine-protein kinase; experiment: Inhibition of Akt1 phosphorylation in human C33a cells; assay type: cell-based

Nc1ncnc2nc(-c3ccc(CN4CCC(c5nc6ccc(F)cc6[nH]5)CC4)cc3)c(-c3ccccc3)cc12
half-life [1]: 2.8 h
clearance [2]: 5.6 mL/min/kg

Nc1nc(O)nc2nc(-c3ccc(CN4CCC(n5c(=O)[nH]c6ccccc65)CC4)cc3)c(-c3ccccc3)cc12
IC50 [3]: 244 nM
IC50 [4]: 577 nM

Nc1nn(CCc2c[nH]cn2)c2nc(-c3ccc(CN4CCC(n5c(=O)[nH]c6ccccc65)CC4)cc3)c(-c3ccccc3)cc12
IC50 [3]: 21 nM
IC50 [4]: 839 nM

COc1nc(-c2ccc(CN3CCC(n4c(=O)[nH]c5ccccc54)CC3)cc2)c(-c2ccccc2)cc1C#N
IC50 [3]: 5550 nM
IC50 [4]: 37700 nM

N#Cc1cc(-c2ccccc2)c(-c2ccc(CN3CCC(n4c(=O)[nH]c5ccccc54)CC3)cc2)nc1Cl
IC50 [3]: 253 nM
IC50 [4]: 7360 nM

Nc1ncnc2nc(-c3ccc(CN4CCC(n5cnc6c(N)ncnc65)CC4)cc3)c(-c3ccccc3)cc12
IC50 [3]: 129 nM
IC50 [4]: 696 nM

Nc1nn(CCO)c2nc(-c3ccc(CN4CCC(n5c(=O)[nH]c6ccccc65)CC4)cc3)c(-c3ccccc3)cc12
IC50 [3]: 131 nM
IC50 [4]: 1230 nM

CNc1nc(-c2ccc(CN3CCC(n4c(=O)[nH]c5ccccc54)CC3)cc2)c(-c2ccccc2)cc1C#N
IC50 [3]: 2250 nM
IC50 [4]: 8140 nM

Cc1nc2ccccc2n1C1CCN(Cc2ccc(-c3nc4ncnc(N)c4cc3-c3ccccc3)cc2)CC1
IC50 [5]: 344 nM
IC50 [6]: 221 nM
IC50 [3]: 69 nM
IC50 [4]: 281 nM

N#Cc1cc(-c2ccccc2)c(-c2ccc(CN3CCC(n4c(=O)[nH]c5ccccc54)CC3)cc2)nc1N
IC50 [3]: 495 nM
IC50 [4]: 2060 nM

Cn1nc(N)c2cc(-c3ccccc3)c(-c3ccc(CN4CCC(n5c(=O)[nH]c6ccccc65)CC4)cc3)nc21
IC50 [3]: 121 nM
IC50 [4]: 556 nM

CN(C)c1nc(-c2ccc(CN3CCC(n4c(=O)[nH]c5ccccc54)CC3)cc2)c(-c2ccccc2)cc1C#N
IC50 [3]: 8460 nM
IC50 [4]: 15400 nM

Nc1ncnc2nc(-c3ccc(CN4CCC(n5c(=O)[nH]c6ccccc65)CC4)cc3)c(-c3ccccc3)cc12
IC50 [5]: 5080 nM
IC50 [6]: 1830 nM
IC50 [3]: 81 nM
IC50 [4]: 259 nM

Nc1ncnc2nc(-c3ccc(CN4CCC(c5cc(-c6ccncc6)[nH]n5)CC4)cc3)c(-c3ccccc3)cc12
IC50 [5]: 1200 nM
IC50 [6]: 463 nM
IC50 [3]: 21 nM
IC50 [4]: 85 nM

Nc1n[nH]c2nc(-c3ccc(CN4CCC(n5c(=O)[nH]c6ccccc65)CC4)cc3)c(-c3ccccc3)cc12
IC50 [3]: 86 nM
IC50 [4]: 7360 nM

Nc1nc(N)c2cc(-c3ccccc3)c(-c3ccc(CN4CCC(n5c(=O)[nH]c6ccccc65)CC4)cc3)nc2n1
IC50 [3]: 107 nM
IC50 [4]: 274 nM
